# Laboratory results reported in patent US20050215543A1, “Methods of treating HIV infection” (priority 2004, published 2005).
# Test system: HIV-1 LAI
# Experiment: microbe, parasite or virus in culture
# Settings: for EC50: Human immunodeficiency virus 1, MT2, 120 h; for Combination Indices at % HIV Inhibition (Confidence Interval) 50%: 50% HIV inhibition; for Combination Indices at % HIV Inhibition (Confidence Interval) 50% / Combination Indices at % HIV Inhibition (Confidence Interval) 75% / Combination Indices at % HIV Inhibition (Confidence Interval) 90%: 95% CI in parenthesis; for Combination Indices at % HIV Inhibition (Confidence Interval) 75%: 75% HIV inhibition; for Combination Indices at % HIV Inhibition (Confidence Interval) 90%: 90% HIV inhibition; for Overall Result: two-drug combination with Compound 1, all ratios and effect levels, MT-2/HIV-1 LAI, RT assay
# Method: Virus and cell lines. The T-cell lines, MT-2 and PM-1 were obtained through the AIDS Research and Reference Reagent Program, NIAID, and were contributed by Dr. D. Richman and Dr. R. Gallo, respectively. Both cell lines were cultured in RPMI 1640 medium supplemented with 10% fetal bovine serum, 2 mM L-glutamine and sub-cultured twice a week. The LAI strain of HIV-1 was obtained from the Fred Hutchinson Cancer Research Center, and the Bal strain was from NIH. Both virus stocks were amplified and titered in MT-2 cells (LAI) and PM-1 cells (Bal) using a virus infectivity assay.
# Drug Susceptibility and Cytotoxicity Assays. For drug susceptibility assays, MT-2 cells were infected with HIV-1 LAI (or PM-1 cells with HIV-1 Bal) at an MOI of 0.005, and seeded into 96-well microtiter plates (0.1×10^6 cells/ml) containing serial dilutions of test compounds. […] Each drug ratio consisted of an array of 3-fold serial dilutions, and was performed in quadruplicate. The plates were incubated at 37° C./5% CO2. The MT-2 cells infected with HIV-1 LAI were incubated for 5 days. On day-five post-infection, 20 μl from each well was harvested and quantitated by a reverse transcriptase (RT) assay, or in samples involving non-nucleoside RT inhibitors, an MTS assay. The PM-1 cells infected with HIV-1 Bal and used for studying the combinations with CCR5 inhibitors were incubated for six days. On day-six post-infection, 20 μl from each well was harvested, 20- and 50-fold diluted and quantitated by p24 assay. Cytotoxicity assays were performed using uninfected cells, exposed to the same drug combinations, and incubated for six days. Cell viability was determined by an XTT assay. The CC50 values were calculated by using the exponential form of the median effect equation as mentioned below for calculation of EC50.
# Analysis of Drug Combination Effects. For determination of CI values, drugs were diluted in a fixed ratio and multiple ratios were analyzed. The drug serial dilutions spanned a range of concentrations near the EC50 value of each compound, so that equivalent antiviral activities could be compared. Concentration-response curves were estimated for each individual drug and every combination using the median-effect equation. The equation was fit using a nonlinear regression routine (Proc Nlin) in PC SAS version 8.01 (SAS Institute Inc., SAS Version 8.01, Cary, N.C.: SAS Institute Inc., 1990).
# In this equation, Fa stands for “fraction affected,” and represents the fraction of the viral load that has been inactivated. […] ED50 is drug concentration that is expected to reduce the amount of virus by 50%, and m is a parameter that reflects the slope of the concentration-response curve.
# To assess antiviral effects of different drug combination treatments, combination indices (CIs) were calculated according to Chou and Rideout. The combination index was computed as CI=[D]1/[Dm]1+[D]2/[Dm]2
# In this equation [Dm]1 and [Dm]2 are the concentrations of drugs that would individually produce a specific level of effect, while [D]1 and [D]2 are the concentrations of drugs in combination that would produce the same level of effect.
# Theoretically, additivity is implied if the CI is equal to one, synergy if the CI is less than one, and antagonism if the CI is greater than one. […] At best, we can construct a range that contains the likely values for the CI, given the noise in the data. In this report, these ranges are reported in parentheses next to each point estimate of the CI. […] If the range fell entirely above 1.0, we would infer antagonistic behavior. If the range were to include 1.0, we would infer additivity.
# In carrying out the combination experiments below, the EC50 for Compound 1 and each comparator compound was determined during the course of each study, and used in the subsequent data analysis.
# [1] = combination with Compound 1, EC50 ratio 1:1 (Compound 1:comparator)
# [2] = combination with Compound 1, EC50 ratio 1:1
# [3] = combination with Compound 1, EC50 ratio 1:2.5
# [4] = combination with Compound 1, EC50 ratio 2.5:1
Structure (SMILES),EC50,Combination Indices at % HIV Inhibition (Confidence Interval) 50% [1],Combination Indices at % HIV Inhibition (Confidence Interval) 75% [2],Combination Indices at % HIV Inhibition (Confidence Interval) 90% [2],Combination Indices at % HIV Inhibition (Confidence Interval) 50% [3],Combination Indices at % HIV Inhibition (Confidence Interval) 75% [3],Combination Indices at % HIV Inhibition (Confidence Interval) 90% [3],Combination Indices at % HIV Inhibition (Confidence Interval) 50% [4],Combination Indices at % HIV Inhibition (Confidence Interval) 75% [4],Combination Indices at % HIV Inhibition (Confidence Interval) 90% [4],Overall Result,Overall Result (listed as indinavir),Overall Result (listed as lopinavir),Overall Result (listed as nelfinavir),Overall Result (listed as saquinavir),Overall Result (listed as stavudine),Overall Result (listed as zalcitabine),Overall Result (listed as zidovudine)
"Nc1ccn([C@@H]2CS[C@H](CO)O2)c(=O)n1 [Lamivudine, lamivudine]",140 nM,"1.02 (0.80, 1.23)","0.59 (0.42, 0.76)","0.37 (0.21, 0.53)","0.89 (0.76, 1.02)","0.41 (0.34, 0.47)","0.20 (0.15, 0.24)","1.07 (0.95, 1.20)","0.71 (0.58, 0.83)","0.50 (0.36, 0.65)",–,–,–,–,–,–,–,–
"Cc1cccc(C)c1OCC(=O)N[C@@H](Cc1ccccc1)[C@@H](O)C[C@H](Cc1ccccc1)NC(=O)[C@H](C(C)C)N1CCCNC1=O [Lopinavir, lopinavir]",1 nM,"0.23 (0.16, 0.42)","0.22 (0.14, 0.30)","0.26 (0.09, 0.44)","0.13 (0.08, 0.18)","0.06 (0.05, 0.08)","0.03 (0.02, 0.05)","1.13 (0.73, 1.52)","0.50 (0.26, 0.74)","0.30 (0.07, 0.52)",Synergistic,–,strong synergistic effects,–,–,–,–,–
"Cc1c(O)cccc1C(=O)N[C@@H](CSc1ccccc1)[C@H](O)CN1C[C@H]2CCCC[C@H]2C[C@H]1C(=O)NC(C)(C)C [Nelfinavir, nelfinavir]",22 nM,"0.66 (0.60, 0.73)","0.78 (0.67, 0.88)","0.91 (0.71, 1.10)","0.29 (0.31, 0.46)","0.62 (0.45, 0.79)","0.99 (0.57, 1.41)","0.77 (0.69, 0.86)","0.69 (0.62, 0.77)","0.62 (0.49, 0.75)",Moderate,–,–,moderate synergy,–,–,–,–
"CC(C)(C)NC(=O)[C@@H]1C[C@@H]2CCCC[C@@H]2CN1C[C@@H](O)[C@H](Cc1ccccc1)NC(=O)[C@H](CC(N)=O)NC(=O)c1ccc2ccccc2n1 [Saquinavir, saquinavir]",9 nM,"0.97 (0.88, 1.07)","0.92 (0.76, 1.07)","0.87 (0.65, 1.09)","0.22 (0.20, 0.24)","0.26 (0.22, 0.29)","0.29 (0.24, 0.35)","1.07 (0.95, 1.20)","0.92 (0.74, 1.10)","0.80 (0.45, 1.14)",Additive-,–,–,–,additive to synergistic,–,–,–
"Cc1cn([C@H]2C=C[C@@H](CO)O2)c(=O)[nH]c1=O [Stavudine, stavudine]",250 nM,"1.47 (1.16, 1.79)","0.60 (0.42, 0.78)","0.25 (0.13, 0.38)","0.50 (0.37, 0.64)","0.29 (0.18, 0.40)","0.18 (0.07, 0.28)","0.69 (0.47, 0.91)","0.55 (0.30, 0.80)","0.45 (0.12, 0.78)",Additive-,–,–,–,–,additive-synergistic,–,–

# More lines, in order of falling EC50, values ahead:
EC50,Structure (SMILES),Combination Indices at % HIV Inhibition (Confidence Interval) 50% [1],Combination Indices at % HIV Inhibition (Confidence Interval) 75% [2],Combination Indices at % HIV Inhibition (Confidence Interval) 90% [2],Combination Indices at % HIV Inhibition (Confidence Interval) 50% [3],Combination Indices at % HIV Inhibition (Confidence Interval) 75% [3],Combination Indices at % HIV Inhibition (Confidence Interval) 90% [3],Combination Indices at % HIV Inhibition (Confidence Interval) 50% [4],Combination Indices at % HIV Inhibition (Confidence Interval) 75% [4],Combination Indices at % HIV Inhibition (Confidence Interval) 90% [4],Overall Result,Overall Result (listed as indinavir),Overall Result (listed as lopinavir),Overall Result (listed as nelfinavir),Overall Result (listed as saquinavir),Overall Result (listed as stavudine),Overall Result (listed as zalcitabine),Overall Result (listed as zidovudine)
110 nM,"Nc1ccn([C@H]2CC[C@@H](CO)O2)c(=O)n1 [Zalcitabine, zalcitabine]","0.55 (0.41, 0.70)","0.57 (0.36, 0.77)","0.59 (0.25, 0.92)","0.87 (0.65, 1.08)","0.66 (0.44, 0.89)","0.51 (0.24, 0.78)","0.68 (0.48, 0.89)","0.64 (0.37, 0.90)","0.59 (0.20, 0.98)",Synergistic,–,–,–,–,–,consistent synergy at all effective levels and concentration ratios,–
3 nM,"Cc1cn([C@H]2C[C@H](N=[N+]=[N-])[C@@H](CO)O2)c(=O)[nH]c1=O [Zidovudine, zidovudine]","1.06 (0.85, 1.27)","0.99 (0.72, 1.26)","0.93 (0.53, 1.34)","1.21 (1.01, 1.40)","0.95 (0.74, 1.16)","0.76 (0.50, 1.02)","0.81 (0.69, 0.92)","0.70 (0.56, 0.83)","0.60 (0.42, 0.79)",Additive-,–,–,–,–,–,–,additive to synergistic
0.7 nM,"CC(C)(C)NC(=O)[C@@H]1CN(Cc2cccnc2)CCN1C[C@@H](O)C[C@@H](Cc1ccccc1)C(=O)N[C@H]1c2ccccc2C[C@H]1O [Indinavir, indinavir]","0.55 (0.46, 0.64)","0.57 (0.45, 0.70)","0.61 (0.39, 0.83)","0.35 (0.24, 0.47)","0.21 (0.17, 0.24)","0.32 (0.20, 0.43)","0.31 (0.22, 0.40)","0.41 (0.27, 0.55)","0.54 (0.20, 0.87)",Synergistic,strong synergistic effects,–,–,–,–,–,–
